Drawing on US12139488B2, “Pyrido[3,2-d]pyrimidine compounds uses thereof for treating a proliferative disease” (Universite de Montreal, priority 2021, dated 2024), this text covers EC50 and IC50 for two compounds.

For one experiment, the system named is A2058 cells (BRAF V600E). In words: Proliferation inhibition (CellTiter-Glo), A2058. Particulars: A2058, 3 days; read-out: A2058 Prolif. EC50. Format: cell-based, human. Here is the method:
All cancer cell lines (A375, A101D, A2058, RKO, HT29 SK-MEL 30, IPC298, HepG2, HCT-116, Lovo, SWV620, SW480, NCI-H358, NCI-H2122, Calu-6, NCIH2087, NCIH1755, NCIH1666 and Mewo) were obtained from ATCC and cultured in RPMI-1640 medium (Gibco) supplemented with 5% heat inactivated fetal bovine serum (FBS, Wisent) at 37° C. under 5% CO2. Cells were maintained in T175 flasks (Greiner). They were passaged by removing the culture medium, washing once in 10 mL of room temperature Phosphate Buffered Saline (PBS; Wisent) and incubating at 37° C. with 2 mL of 0.05% Trypsin (Thermo-Fisher). […]
After 3 days of incubation, the growth media were removed by aspiration and 60 μL of diluted CellTiter-Glo® reagent (10 μL CellTiter-Glo® reagent+50 μL of PBS) was added to each well. […] Luminescence signals were then acquired on a Synergy Neo2 plate reader (Biotek).
The effect of each compound dilution on the proliferation of cancer cell lines was expressed in % inhibition and calculated as follows. […]
The ability of each compound to inhibit proliferation was expressed as a EC50 value obtained by plotting the effect values for each data point of a dilution series and fitting the obtained curves using a log(agonist) versus response-variable slope (four parameters) function using GraphPadPrism (V7.0) or Dotmatics Screening Ultra platform.
Background: In ATP-based viability assays light output follows the ATP content of the culture.

Another experiment has as its target CRAF (Homo sapiens, UniProt P04049). In words: CRAF kinase activity assay (ADP-Glo). Type of experiment: biochemical. Particulars: read-out: Kinase IC50 (nM) CRAF. The method, boiled down:
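ADP-Glo luminescence assay of BRAF and CRAF kinase reactions with MEK1 substrate and ATP. Reactions ran 2 h at 30 °C with compound over nine concentrations from 100 nM to 0.01 nM, at 0.05% DMSO final. IC50 came from four-parameter variable-slope fits of % inhibition.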

Chain of CRAF (P04049 whole entry, looked up): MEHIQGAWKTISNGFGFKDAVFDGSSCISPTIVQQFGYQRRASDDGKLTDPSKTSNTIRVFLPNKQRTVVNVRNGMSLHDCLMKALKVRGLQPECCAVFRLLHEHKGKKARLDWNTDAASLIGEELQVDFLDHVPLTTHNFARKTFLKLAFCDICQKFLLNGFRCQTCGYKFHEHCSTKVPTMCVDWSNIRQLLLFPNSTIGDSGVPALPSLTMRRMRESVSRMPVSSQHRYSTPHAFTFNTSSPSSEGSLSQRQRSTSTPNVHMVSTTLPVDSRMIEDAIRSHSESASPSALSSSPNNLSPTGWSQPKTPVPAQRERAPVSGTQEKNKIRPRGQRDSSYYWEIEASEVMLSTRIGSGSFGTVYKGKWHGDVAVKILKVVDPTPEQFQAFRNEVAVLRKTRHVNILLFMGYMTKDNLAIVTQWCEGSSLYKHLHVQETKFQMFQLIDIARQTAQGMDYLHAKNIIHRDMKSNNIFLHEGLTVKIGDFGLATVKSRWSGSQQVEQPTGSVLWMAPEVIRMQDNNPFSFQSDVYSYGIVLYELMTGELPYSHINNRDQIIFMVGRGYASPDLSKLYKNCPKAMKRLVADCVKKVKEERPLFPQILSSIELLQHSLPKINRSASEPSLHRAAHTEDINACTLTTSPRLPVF

On to `CC1(O)CCN(c2cccc3c2ncn3-c2ccc3ncnc(Nc4c(F)ccc(NS(=O)(=O)c5cccc(Cl)c5Cl)c4F)c3n2)CC1` [Example 524], for which the EC50 (in general, the concentration giving half of the maximal effect) in the experiment on A2058 cells (BRAF V600E) is less than 30 nM.
On to `Nc1cccc2c1ncn2-c1ccc2ncnc(Nc3c(F)ccc(NS(=O)(=O)c4cccc(Cl)c4Cl)c3F)c2n1` [Example 99], for which the EC50 with A2058 cells (BRAF V600E) is less than 30 nM. Besides, the IC50 (as a rule, the point on the concentration scale where inhibition reaches its midpoint) at CRAF was less than 10 nM.
